For 96 compounds, cytotoxicity results are on record in ChEMBL document CHEMBL3507680, “University of Dundee, Gates Library screen for HepG2 cell viability”.

The structures appear in SMILES notation.

The nature of this data set: Human HepG2 cell viability assay in 384 well format. The format is toxicity, cell-based. The arrangement: dose 125 nL, time 70.5 hour; cytotoxicity at 70.5 h: concentration not given beside the values. Particulars: HepG2 cells, read-out: Inhibition.
Consider `c1ccc(-c2nc3c(c(NCCn4cccc4)n2)CCNCC3)nc1`, for which the cytotoxicity at 70.5 h was -14.1%.
With `CCCc1nc(C)cc(NCc2ccc(S(N)(=O)=O)cc2)n1`, the cytotoxicity at 70.5 h is -16.8%.
`COc1ncccc1CN1CC[C@@]2(O)CCN(C(=O)C3CCC3)C[C@H]2C1`: the cytotoxicity at 70.5 h was -5.11%.
As for `COc1ccccc1OCCCN1CCNC1=O`, the figure is -8.47%.
In the case of `c1cnc(N2C[C@@H]3CC[C@H](C2)N(Cc2ccsc2)C3)nc1`, the cytotoxicity at 70.5 h is -9.26%.
As for `Cc1ccc(N2C[C@@H]3CN(C(=O)NC4CCCC4)C[C@]3(C(=O)O)C2)nn1`, the cytotoxicity at 70.5 h stood at 2.02%.
For `C=C1C(C)(C)[C@H]2CC[C@]1(C(=O)N1CCC(n3cc(CCO)nn3)CC1)C2`, the cytotoxicity at 70.5 h is -10.3%.
As for `COc1ccccc1S(=O)(=O)N1CCC2(CC1)[C@H](O)C[C@@H]2O`, the cytotoxicity at 70.5 h is -10.2%.
For `O=C(c1ccc2c(c1)[nH]c(=O)n2[C@H]1CC[C@H](O)CC1)N1CCOCC1`, the cytotoxicity at 70.5 h was -12.1%.
Consider `CN(Cc1cnc(N)nc1)C(=O)c1coc(COc2cccc(F)c2)n1`, for which the cytotoxicity at 70.5 h amounted to 0.199%.
As for `Cc1n[nH]c(C)c1CCc1n[nH]c(=O)n1Cc1cccs1`, the cytotoxicity at 70.5 h was -0.375%.
In the case of `Cc1cc(C)n(CC(C)Nc2nc(-c3ccncc3)nc3c2CNC3)n1` (stereo unspecified) it was 17.3%; in that of `CCN1CCN(C[C@@H]2CN(c3ncc(Cl)cc3F)C[C@@H]2CO)CC1`, -10.9%.
Take `CSCC[C@H](N)C(=O)NCc1cc2n(n1)CCCN(C(=O)N(C)C)C2`: the cytotoxicity at 70.5 h is -8.91%.
Consider `NC1CCCCN(Cc2cc(C3CCCCC3)no2)C1` (stereo unspecified), for which the cytotoxicity at 70.5 h was -7.91%.
As for `Cc1ccc(NC(=O)CN[C@H](C(N)=O)C(C)C)cc1F`, the figure is 13.9%; as for `Cc1cc(C)cc(CN2CCN(Cc3cc(C#N)n(C)c3)CC2=O)c1`, -6.92%; as for `CS(=O)(=O)c1ccc(-c2cc(C3CC3)c(C#N)c(N)n2)cc1`, 0.0408%.
Take `CC(C)=CCN1CCN(Cc2cc(C)c(O)c(C)c2)CC1CCO` (stereo unspecified): the cytotoxicity at 70.5 h amounted to 9.39%.
In the case of `O=C1CCC2(CCN(Cc3nccs3)CC2)CN1CCCO`, the cytotoxicity at 70.5 h was -6.67%.
Turning to `COc1ccc(C(=O)N2CCC3(CC2)c2ccccc2[C@@H](N)[C@@H]3O)cc1`, the cytotoxicity at 70.5 h amounted to 0.101%.
Consider `Cc1nnsc1C(=O)N1CCN(C(=O)C2CCC2)[C@@H]2CS(=O)(=O)C[C@@H]21`, for which the cytotoxicity at 70.5 h is -10.8%.
As for `O=c1cc(N2CCCC2)cnn1CC(F)F`, the figure is -6.13%.
As for `Cn1ccnc1-c1cn(CCCc2nnc(N)s2)nn1`, the figure is -19.9%; as for `CCC1CN(C(=O)c2cc(C(C)=O)c(C)[nH]c2=O)CCN1C(C)C` (stereo unspecified), -9.37%.
With `O=C(NCCO)c1coc(CN2CCN(c3ccccc3F)CC2)n1`, the cytotoxicity at 70.5 h was -5.22%.
Regarding `COCCN1C(=O)[C@H]2CC[C@@H]1CN(Cc1nnc(C3CC3)o1)C2`, the cytotoxicity at 70.5 h amounted to 19.1%.
In the case of `CCCc1ccc2oc(C(=O)N3CCCN(C)CC3)c(C)c2c1` it was -2.52%.
In the case of `CCc1ncc2c(n1)CN(C(=O)c1c(C)[nH]c(C(C)=O)c1C)C2`, the cytotoxicity at 70.5 h is -9.15%.
Turning to `CCN1CCCC(C)(C(=O)NCc2nnnn2-c2ccccc2)C1` (stereo unspecified), the cytotoxicity at 70.5 h was -5.49%.
As for `COc1ccc2c(c1)C(C(=O)N(C)CCc1scnc1C)CC(=O)N2` (stereo unspecified), the cytotoxicity at 70.5 h is -5.27%.
In the case of `CCCn1cc(C(=O)NCCC(=O)NC2CCCCC2)c(C)n1`, the cytotoxicity at 70.5 h was -4.38%.
In the case of `Cc1cc(C)c2nc(CN3CCC(C#N)CC3)cc(O)c2c1` it was -1.43%.
As to `CN(C)S(=O)(=O)N1C[C@@H]2CC[C@H](C1)N(Cc1cccc(C#N)c1)C2`, the cytotoxicity at 70.5 h was -8.84%.
As to `CN(Cc1ccoc1)C(=O)Cn1ncc(N(C)C)cc1=O`, the cytotoxicity at 70.5 h amounted to 9.67%.
With `Cc1nn(CC(=O)NCCc2ccncc2)c(=O)n1Cc1ccccc1`, the cytotoxicity at 70.5 h is 1.25%.
Consider `CN(Cc1nc(CC2CC2)no1)CC1COc2ccccc2O1` (stereo unspecified), for which the cytotoxicity at 70.5 h is -3.03%.
On to `CC(C)n1ccnc1CN1C(=O)OC[C@@H]1c1ccccc1`, for which the cytotoxicity at 70.5 h is -2.47%.
As to `FC(F)(F)C1CN(Cc2cnc3c(-c4ccccc4)cnn3c2)CCO1` (stereo unspecified), the cytotoxicity at 70.5 h is -7.58%.
For the compound `CN(C)c1nc2c(c(N3CCCC3)n1)CCN(C(=O)c1ccc[nH]1)CC2`, the cytotoxicity at 70.5 h amounted to 25.5%.
In the case of `CCn1ccnc1CN(C)Cc1nc(Cc2cccc(F)c2)no1`, the cytotoxicity at 70.5 h is 11.1%.
`CCCNC(=O)N1CCCC2(CCC(=O)N(CCc3c[nH]cn3)C2)C1` (stereo unspecified): the cytotoxicity at 70.5 h was -1.2%.
On to `CCC(CO)N(Cc1ccco1)C(=O)c1ccccc1SC` (stereo unspecified), for which the cytotoxicity at 70.5 h came to 10.8%.
`Cc1nc2c(c(N3CCCOCC3)n1)CCN(C(=O)N1CCCC1)CC2`: the cytotoxicity at 70.5 h was -4.22%.
In the case of `CC(=O)c1ccc(CN2CC(Oc3ccccc3C)C2)cc1` it was -1.63%; in that of `CNC(=O)c1cc(NC(=O)NCC2CCS(=O)(=O)C2)ccc1OC` (stereo unspecified), 19.9%; in that of `Cn1ncc2c(N3CC(N4CCCCC4)C3)nc(C3CCCC3)nc21`, -4.55%.
As for `COCCC(=O)N1CCC2(CCCN(Cc3cc(OC)ccc3F)C2)C1` (stereo unspecified), the figure is -6.14%.
In the case of `O=C(c1ccc(S(=O)(=O)NCc2ccncc2)cc1)N1CCNCC1` it was -6.98%; in that of `CC(C)(O)C1CCCN(C(=O)Nc2nc(-c3ccccc3)ns2)C1` (stereo unspecified), -3.5%; in that of `CC1=NC2(CCN(CC(C)c3ccccc3)CC2)C(=O)N1` (stereo unspecified), -8.98%.
Regarding `CC(=O)c1ccc(-c2cnn(CC(=O)Nc3cc(C)nn3C)c2)nc1`, the cytotoxicity at 70.5 h was -13%.
For the compound `CCCc1nc(N2CCCC(CCOC)C2)c2cnn(C)c2n1` (stereo unspecified), the cytotoxicity at 70.5 h came out at 15.9%.
Turning to `CNC(=O)[C@@H]1C[C@@H](N)CN1Cc1cc2cc(C)cc(C)c2[nH]c1=O`, the cytotoxicity at 70.5 h is -12%.
With `C[C@@H]1CN(C(=O)CCc2cnn(C)c2)C[C@@]1(O)C1CCC1`, the cytotoxicity at 70.5 h is -5.7%.
For `CC(C)c1cc(N2CCC(N(C)C)C2)n2nccc2n1` (stereo unspecified), the cytotoxicity at 70.5 h is -8.85%.
Turning to `CCC(CO)N(Cc1cccnc1)C(=O)c1ccncc1F` (stereo unspecified), the cytotoxicity at 70.5 h is -9.31%.
In the case of `COc1ccc(CN2CC(=O)N(c3ccc(C)cc3)CC2C)cc1O` (stereo unspecified) it was -2.16%; in that of `Cc1ccc(-c2cc(C(=O)NCCCc3csc(N)n3)[nH]n2)s1`, -3.12%; in that of `CS(=O)(=O)NC1CCN(C(=O)c2cnc(-c3cccnc3)nc2)CC1`, -7.35%.
Take `COc1cccc(-c2cc(NCCN(C)C)nc3[nH]ccc23)n1`: the cytotoxicity at 70.5 h was -6.53%.
For the compound `CSCC(=O)N1CCc2c(cnc(C)c2-c2noc(-c3ccco3)n2)C1`, the cytotoxicity at 70.5 h is -17%.
Consider `O=C(c1ccc(=O)[nH]c1)N1CCCC1c1nc2cc(F)ccc2[nH]1` (stereo unspecified), for which the cytotoxicity at 70.5 h is -3.97%.
Turning to `O=C(c1coc2ccccc12)N1CCCC(O)(CO)CC1` (stereo unspecified), the cytotoxicity at 70.5 h is -7.66%.
With `COc1c(C)cnc(CN(C)C(=O)c2ccc(C3CCCO3)s2)c1C` (stereo unspecified), the cytotoxicity at 70.5 h was -6.12%.
For `Cn1ccnc1SCCNc1cc(N2CCOCC2)ncn1`, the cytotoxicity at 70.5 h was -19.6%.
As to `Cc1cccc(N2CCC(N3CCC4(CCCNC4=O)C3)CC2)c1C` (stereo unspecified), the cytotoxicity at 70.5 h came out at 10.3%.
With `COCCC(=O)N1CCC2(CC1)CC(c1ccccc1)CN(C1CC1)C2` (stereo unspecified), the cytotoxicity at 70.5 h turned out to be 0.742%.
As for `Cc1noc(C)c1CN1CCn2nc(CCC(=O)N3CCCC3)cc2C1`, the cytotoxicity at 70.5 h was -2.3%.
As for `Cc1cc(N2CCCC3(CN(C)C(=O)O3)C2)c2cc3c(cc2n1)OCO3` (stereo unspecified), the cytotoxicity at 70.5 h amounted to 19.1%.
In the case of `CCCn1c(C)c(CC(=O)NCCOC)c2c1CC(C)(C)CC2=O`, the cytotoxicity at 70.5 h was -0.0334%.
As for `CCC(CO)N(Cc1cccs1)C(=O)CNS(=O)(=O)c1cccs1` (stereo unspecified), the figure is -4.61%.
For `CCN1CC(C(=O)N2CCN(CCn3cccc3)CC2)CC1=O` (stereo unspecified), the cytotoxicity at 70.5 h was 18.1%.
In the case of `CC[C@H]1CN(C(=O)c2cccc(-n3cnnc3)n2)CC[C@@]1(C)O`, the cytotoxicity at 70.5 h was determined as 19.7%.
Consider `Cc1nc(NCC(O)CN2CCCCCC2)c2c(C)noc2n1` (stereo unspecified), for which the cytotoxicity at 70.5 h is -5.74%.
In the case of `O=C(CCn1cc(Cl)cn1)N1CCCC(O)(CO)CC1` (stereo unspecified) it was -4.26%; in that of `Cc1cnc(C(=O)N2CCNCC2C(=O)NCc2ccncc2)cn1` (stereo unspecified), 3.98%; in that of `Cc1ccccc1OCCC(=O)N1CCc2nc(C)n(C)c(=O)c2CC1`, -8.53%.
With `COc1ccc(Cc2ncc3c(n2)CN(C(=O)CN(C)C)C3)cc1`, the cytotoxicity at 70.5 h was -8%.
Take `Cc1cccc(C(C)C)c1NC(=O)CN(C)C(C)c1nccs1` (stereo unspecified): the cytotoxicity at 70.5 h was -9.73%.
`CN(C)C(=O)Cc1ccc(-c2cccc3c2CCNC3)cc1`: the cytotoxicity at 70.5 h was -21.8%.
`CCCNc1ncc(CN2CCOC(Cc3cccc(F)c3)C2)cn1` (stereo unspecified): the cytotoxicity at 70.5 h is -10.7%.
In the case of `NC(=O)CN1CC2(CCC1=O)CCN(Cc1cc(F)cc(F)c1)CC2` it was -0.945%; in that of `CCN(Cc1cccc(C(=O)Nc2ncc(C)s2)c1)[C@H]1COC[C@@H]1O`, -3.78%.
For `CCCn1ncc(C2CC(=O)NCc3nc4cc(C)ccn4c32)c1C` (stereo unspecified), the cytotoxicity at 70.5 h turned out to be 2.43%.
Take `CCc1nn(C)c(Cl)c1CN1CCCC2(C1)CN(C)C(=O)O2` (stereo unspecified): the cytotoxicity at 70.5 h is -11.8%.
`O=C(COc1cccc(F)c1)N1C[C@H](CO)C[C@H](CN2CCCC2)C1`: the cytotoxicity at 70.5 h stood at 6.4%.
In the case of `Cc1cc(C)n(CCCN(C)C(=O)CN2CC3(CCNCC3)OC2=O)n1` it was -8.19%.
For `Cc1ccsc1CN(Cc1ccccn1)CC(O)CO` (stereo unspecified), the cytotoxicity at 70.5 h is -1.67%.
In the case of `COc1cnc(N2CCC(c3ncc[nH]3)CC2)nc1`, the cytotoxicity at 70.5 h was 17.8%.
Consider `O=C(Nc1ccccc1)N1CCC(N2Cc3ncccc3C2=O)CC1`, for which the cytotoxicity at 70.5 h is -8.29%.
In the case of `CCc1ccccc1C(=O)N1C[C@@H](CN2CCOCC2)[C@@H](CO)C1` it was 27.9%.
In the case of `Cn1ncc(N2CCC(CNC3CC(C)(C)CC(C)(C)C3)C2)cc1=O` (stereo unspecified), the cytotoxicity at 70.5 h is 7.5%.
Consider `CN(CCCc1cnn(C)c1)Cc1cc2n(n1)CCCNC2`, for which the cytotoxicity at 70.5 h is -14.1%.
Turning to `CC(C)C1CN(Cc2c[nH]cn2)CCCN1CC1CC1` (stereo unspecified), the cytotoxicity at 70.5 h is -17.8%.
In the case of `OCC(O)CN(CCN1CCOCC1)Cc1ccco1` (stereo unspecified) it was -8.67%.
